According to patent US20050209310A1, “Methods for modulating tumor growth and metastasis” (priority 2000, published 2005):

Legend:
[1] = tested on: ES2 human clear cell ovarian carcinoma; test: Multi-drug resistant ES2 ovarian carcinoma model, tumor size and survival; assay type: in vivo, Fox Chase CB-17 SCID mice
Method: The multi-drug resistant ES2 human clear cell ovarian carcinoma was established by subcutaneous injection of cultured ES2 cells in Fox Chase CB-17 SCID mice. In one experiment, tumor-bearing mice were administered CA4P at a dose of 100 mg/kg (Group II), saline carrier only (Group I), an intraperitoneal (i.p.) injection of paclitaxel at a dose of 9 mg/kg, followed 30 minutes later by an infusion of carboplatin at a dose of 30 mg/kg […], or CA4P (100 mg/kg) followed 24 hours later by paclitaxel and carboplatin as in Group II (Group IV). Treatment with anticancer agents was performed once a week for 4 weeks (i.e. on Day 11, 19, 26, and 33). Tumors in each treatment group (n=2) were measured every 4 days by width and length. Tumor size (i.e. volume) was calculated according to the following formula: Length×Width^2×0.4.
In a second experiment, tumor-bearing mice were administered CA1P and/or carboplatin and paclitaxel in the same treatment regime as the first experiment.

[2] = tested on: N87 human gastric carcinoma; test: Single agent antitumor activity, N87 xenograft model; conditions: in vivo
[3] = tested on: N87 gastric cancer tumor xenografts; test: Tumor perfusion studies of CA1P, N87 xenografts
[4] = tested on: A2780 human ovarian carcinoma; test: In vivo antitumor testing, A2780 human ovarian carcinoma xenograft
Method: (§1) The following protocols are provided to facilitate the practice of Examples I and II. • Drug administration: For administration to rodents, CA4P was dissolved in normal saline (0.9% NaCl). Paclitaxel was dissolved in a 50/50 mixture of ethanol and Cremophor® and stored at 4° C.; final dilution of paclitaxel was obtained immediately before drug administration with NaCl 0.9%. Fresh preparation of paclitaxel was employed to avoid precipitation. CPT-11 was dissolved in normal saline. • The volume of all compounds injected was 0.01 ml/g of mice, and 0.005 ml/g of rats. • In Vivo Antitumor Testing: The following tumor models were used: A2780 human ovarian carcinoma, the murine fibrosarcoma M5076 and M5076/ddp (resistant to cisplatin and carboplatin).
(§2) The human tumors were maintained in Balb/c nu/nu nude mice. M5076 and M5076ddp were maintained in C57BL/6 mice. Tumors were propagated as subcutaneous transplants in the appropriate mouse strain using tumor fragments obtained from donor mice.
(§3) The following tumors were passaged in the indicated host strain of mouse: murine M5076 fibrosarcoma (M5076) in C57B1/6 mice; human A2780 ovarian carcinomas in nude mice. Tumor passage occurred biweekly for murine tumors and approximately every two to three weeks for the human tumor line. With regard to efficacy testing, M5076 and M507 6ddp tumors were implanted in (C57B1/6×DBA/2)F1 hybrid mice, and human tumors were implanted in nude mice. All tumor implants for efficacy testing were subcutaneous (sc).
The required numbers of animals needed to detect a meaningful response were pooled at the start of the experiment and each was given a subcutaneous implant of a tumor fragment (˜50 mg) with a 13-gauge trocar. For treatment of early-stage tumors, the animals were again pooled before distribution to the various treatment and control groups. For treatment of animals with advanced-stage disease, tumors were allowed to grow to the predetermined size window (tumors outside the range were excluded) and animals were evenly distributed to various treatment and control groups. […]
Tumor response was determined by measurement of tumors with a caliper twice a week, until the tumors reach a predetermined “target” size of 1 gm. Tumor weights (mg) were estimated from the formula: Tumor weight=(length×width2)÷2 Antitumor activity was evaluated at the maximum tolerated dose (MTD) which is defined as the dose level immediately below which excessive toxicity (i.e. more than one death) occurred. […] When death occurs, the day of death was recorded. […]
To estimate tumor cell kill, the tumor volume doubling time was first calculated with the formula: TVDT=Median time (days) for control tumors to reach target size−Median time (days) for control tumors to reach half the target size and, Log cell kill=T−C÷(3.32×TVDT). […]

[5] = tested on: A2780 human ovarian tumor xenografts; test: Tumor perfusion studies of CA1P, A2780 xenografts
[6] = tested on: M5076 murine fibrosarcoma; test: In vivo antitumor testing, sc M5076 murine fibrosarcoma; conditions: for complete response (disappearance of tumors): CA1P + carboplatin vs either agent alone (FIG. 11); for minimum effective dose required for synergistic enhancement: in combination with carboplatin (FIG. 10)
Method: as §1, §2, §3
The required numbers of animals needed to detect a meaningful response were pooled at the start of the experiment and each was given a subcutaneous implant of a tumor fragment (˜50 mg) with a 13-gauge trocar. For treatment of early-stage tumors, the animals were again pooled before distribution to the various treatment and control groups. For treatment of animals with advanced-stage disease, tumors were allowed to grow to the predetermined size window (tumors outside the range were excluded) and animals were evenly distributed to various treatment and control groups. Treatment of each animal was based on individual body weight. Treated animals were checked daily for treatment related toxicity/mortality. Each group of animals was weighed before the initiation of treatment (Wt1) and then again following the last treatment dose (Wt2). The difference in body weight (Wt2−Wt1) provides a measure of treatment-related toxicity.
Tumor response was determined by measurement of tumors with a caliper twice a week, until the tumors reach a predetermined “target” size of 1 gm. Tumor weights (mg) were estimated from the formula: Tumor weight=(length×width2)÷2 Antitumor activity was evaluated at the maximum tolerated dose (MTD) which is defined as the dose level immediately below which excessive toxicity (i.e. more than one death) occurred. […] When death occurs, the day of death was recorded.
Tumor response end-point was expressed in terms of tumor growth delay (T−C value), defined as the difference in time (days) required for the treated tumors (T) to reach a predetermined target size compared to those of the control group (C).
To estimate tumor cell kill, the tumor volume doubling time was first calculated with the formula: TVDT=Median time (days) for control tumors to reach target size−Median time (days) for control tumors to reach half the target size and, Log cell kill=T−C÷(3.32×TVDT).
Statistical evaluations of data were performed using Gehan's generalized Wilcoxon test.

[7] = tested on: sc A2780 human ovarian carcinoma; test: Tumor perfusion, Evans blue dye uptake assay, mice; assay type: in vivo; conditions: iv, optimal dose, Evans blue injected an hour later (FIG. 5A)
Method: (§4) The effects of CA4P disodium salt on tumor perfusion were also studied using the Evans blue dye uptake assay. Mice or rats bearing sc A2780 human ovarian carcinoma were administered an iv dose of CA4P disodium salt. An hour later, Evans blue was injected iv. The amount of Evans blue accumulated in the tumor is proportional to the blood flow through the tumor.

[8] = tested on: M5076DDP murine fibrosarcoma; test: In vivo antitumor testing, sc M5076DDP murine fibrosarcoma (resistant to cisplatin and carboplatin); set-up: species or system mice
Method: Fresh preparation of paclitaxel was employed to avoid precipitation.
M5076 and M5076ddp were maintained in C57BL/6 mice.
All tumor implants for efficacy testing were subcutaneous (sc).
The MTD was frequently equivalent to OD. When death occurs, the day of death was recorded.
M507 6DDP is a murine fibrosarcoma that has developed resistance to cisplatin and cross-resistance to carboplatin. The in vivo antitumor activity of CA4P or CA1P in combination with each of these platinum coordination compounds and CPT-11 were evaluated in M5076DDP tumor bearing mice.

[9] = tested on: sc A2780 human ovarian carcinoma; test: Tumor perfusion, Evans blue dye uptake assay, rats; assay type: in vivo; conditions: iv, optimal dose, Evans blue injected an hour later (FIG. 5B)
Method: as §4

[10] = Hematological analysis of whole blood, Phase I trial of CA4P; assay type: in vivo, human
Method: Hematological analysis was performed on whole blood obtained from patients participating in a Phase I trial of CA4P (see Rustin et al., J. Clin. Oncol. (2003)). All patients had histologically confirmed tumors and were either not amenable to standard curative therapy or were refractory to conventional therapy. Blood work was obtained from each patient 1 minute prior to treatment, every 15 minutes for the first hour post-treatment, and at 1.5, 2, 4, 8, 12 and 24 hours following infusion with the first dose of CA4P (52-114 mg/m^2). Art-recognized hematology methods were used in the analysis.
All full or differential blood cell counts were performed using a hematology flow cytometer (Technicon H2, Bayer Inc.). Total white blood cell (“WBC” or leukocyte) and red blood cell (“RBC” or erythrocyte) counts were established using direct laser flow cytometry. A differential count for leukocyte cells of myeloid origin (e.g. eosinophils, neutrophils, monocytes) was obtained by fluorescent flow cytometry of cells stained for myeloperoxidase. Unstained cells were assumed to be lymphocytes and basophils. Lymphocyte counts were obtained by subtracting those cells that stained […] for a second, basophil-specific cell stain. Mean Corpuscular Volume (MCV) and Mean Corpuscular Haemoglobin (MCH) were also obtained by laser flow cytometry. The haematocrit (Hct) was calculated from the RBC count and the MCV. The coagulant status of each blood sample was determined by measuring fibrinogen content, prothrombin time, and kaolin partial thromboplastin time (when kaolin is used instead of micronised silica as the activator).
Cell counts were averaged from nineteen patients treated with a range of CA4P doses (52 to 114 mg/m^2). The results of the complete hematological analysis obtained at 4 and 24 hours post-treatment are presented in FIG. 18 as a percentage of the corresponding pretreatment value. […] The increase in white blood cells occurred despite a significant decrease in lymphocyte count (i.e. T and B-lymphocytes). […] The more than 2-fold increase in neutrophils and more than 20% decrease in lymphocytes was transient however, as white blood cell counts returned to normal levels within 24 hours of treatment.

[11] = 4 hours following treatment, CA4P 52 to 114 mg/m^2, nineteen patients

SMILES: COc1cc(/C=C\c2ccc(OC)c(OP(=O)(O)O)c2OP(=O)(O)O)cc(OC)c1OC [CA1P, combretastatin A-1 diphosphate]
- control of tumor growth ([1]; second experiment: CA1P and/or carboplatin and paclitaxel, same regime (FIG. 15)): considerable anti-tumor growth delay
- single agent activity [2]: improved single agent activity
- inhibition of tumor blood flow [3]: significantly inhibited tumor blood flow
- log cell kill (LCK) ([4]; CA1P at MTD 9 mg/kg, ip, q1dx8): 2.1 LCK
- maximum tolerated dose (MTD) ([4]; CA1P, ip, q1dx8): 9 mg/kg
- inhibition of tumor blood flow ([5]; A2780 xenografts in mice): significantly inhibited tumor blood flow
- potency of blood flow inhibition relative to CA4P ([5]; daily single agent for ten days, human tumor xenografts in nude mice (N87, A2780; FIG. 9)): 5-10 times
- complete response (disappearance of tumors) [6]: not observed
- minimum effective dose required for synergistic enhancement [6]: 4 to 8 mg/kg

SMILES: COc1ccc(/C=C\c2cc(OC)c(OC)c(OC)c2)cc1OP(=O)(O)O [CA4P, combretastatin A-4 phosphate]
- animals still alive at the conclusion of the experiment ([1]; first experiment (FIG. 14)): 30%
- control of tumor growth ([1]; first experiment: CA4P 100 mg/kg, paclitaxel 9 mg/kg, carboplatin 30 mg/kg, once a week for 4 weeks (FIG. 13)): not significantly more effective than paclitaxel and carboplatin
- reduction of tumor blood flow [7]: 67%
- log cell kill (LCK) ([8]; CA4P single agent, optimal dose 150 mg/kg/inj, iv, everyday x10 (Monday thru Friday), advanced (300 mg) tumors): 1.1 LCK
- CA4P dose sufficient to enhance the antitumor activity of carboplatin ([8]; iv, q4dx3, doses without single agent activity, carboplatin at a range of dose levels (FIG. 7)): 12.5-25 mg/m^2
- log cell kill (LCK) ([4]; CA4P at 150 mg/kg, ip): 1.1 LCK
- reduction of tumor blood flow [9]: 87%
- decrease in lymphocytes [10, 11]: more than 20%
- increase in neutrophils [10, 11]: more than 2 fold
- total white blood cell count ([10]; 4 hours following treatment, CA4P 52 to 114 mg/m^2, nineteen patients, vs pretreatment): highly significant increase
- time for white blood cell counts to return to normal levels ([10]; after treatment with CA4P): ≤ 24 h
- single agent antitumor activity ([6]; CA4P administered Q4Dx3, separate experiment): no activity
- maximum tolerated dose (MTD) as a single agent ([6]; CA4P single agent): > 250 mg/kg/inj
- optimal CA4P dose required for therapeutic synergy ([6]; in combination with carboplatin (FIG. 3B)): < 90 mg/kg/inj
- minimum effective dose required for synergistic enhancement [6]: 25 to 50 mg/kg

SMILES: N.N.O=C([O-])C1(C(=O)[O-])CCC1.[Pt+2] [carboplatin, Carboplatin, reference compound]
- complete response (disappearance of tumors) [6]: not observed
- log cell kill (LCK) ([6]; carboplatin alone at MTD 90 mg/kg/inj, iv, Q4Dx3, large sc tumors (300 mg)): 1.4 LCK
- tumor regression / shrinkage ([6]; carboplatin alone at MTD vs best CA4P + carboplatin combination (FIG. 3A)): no tumor regression
- maximum tolerated dose (MTD) ([6]; carboplatin, iv, Q4Dx3): 90 mg/kg/inj

SMILES: N.N.[Cl][Pt][Cl] [cisplatin]
- shrinkage of tumors following treatment ([8]; combination vs single agent cisplatin (FIG. 1)): did not
- maximum tolerated dose (MTD) ([8]; injected every 4 days for 3 doses (Q4Dx3)): 7.5 mg/kg
- log cell kill (LCK) ([8]; single agent cisplatin at MTD 7.5 mg/kg, iv, Q4Dx3): 0.8 LCK

SMILES: CCc1c2c(nc3ccc(OC(=O)N4CCC(N5CCCCC5)CC4)cc13)-c1cc3c(c(=O)n1C2)COC(=O)[C@]3(O)CC [CPT-11, CPT-11 (irinotecan), reference compound]
- log cell kill (LCK) ([4]; CPT-11 at its MTD): 3.3 LCK
